Results on three molecules are retold here after patent publication US20170029355A1, “LABILE ESTERS OF AGROCHEMICALS FOR CONTROLLED RELEASE AND REDUCTION OF OFF-SITE MOVEMENT” (Monsanto Technology LLC, priority 2011, published 2017).

Data set [1] can be described thus: Field dicamba volatility, airborne dicamba collected by air samplers (Example 34). Format: physicochemical. The following applies: field plot, 0.5 lb/acre dicamba a.e. with ROUNDUP WEATHERMAX, airborne dicamba collected over 24 hours, maximum 86° F.
The nature of data set [2]: In vitro dicamba photo-release from photo-labile dicamba esters, acetonitrile/10% water solvent (Example 27). Format: physicochemical. Particulars: acetonitrile containing 10% water. As to the method:
This Example describes in vitro testing of dicamba photo-release by homogeneous solutions of photo-labile dicamba esters. The esters were dissolved in tetrahydrofuran (THF). Ester concentration was 0.1 mM. 25 ml of the solution was transferred to 22 mm tubes fabricated from graded seal quartz tubing with a 19/22 tapered seal at the top, which was closed with a tapered glass plug and secured with a plastic ring clamp. The solution was entirely below the quartz-to-glass transition, ensuring that the entire volume was exposed to the full spectrum.
The sealed tubes were placed in a Growth Chamber where they were exposed to simulated sunlight for 14 hours per day at 35° C. Dicamba concentrations in the solution were measured during the course of the photolysis.
A sample of the initial solution was reserved in a glass vial away from the light source and analyzed at the conclusion of the study, providing a measurement of the amount of dicamba present without illumination of the photolysis solution (the “dark control”).
This Example is another photolysis of photo-labile dicamba esters, but using acetonitrile containing 10% water by weight as the solvent. The experimental protocol is otherwise the same as in Example 18.

Another data set concerns velvetleaf. As to the kind of experiment: Greenhouse post-emergent control of velvetleaf by emulsifiable concentrates (Example 30). The data set is classed as in vivo. As to the method: The efficacy of some photo-labile ester formulations from Example 28 for post-emergent control of velvetleaf was tested in the greenhouse. All formulations were tested at rates of 140, 280, 420, and 560 g dicamba equivalent per hectare rates and compared to the diglycolamine salt of dicamba (CLARITY®) at the same rates and untreated control plants. The velvetleaf plants were 10-15 cm in height at the time of spraying. Percent control was evaluated three weeks after treatment.
The methodology of Example 29 was used to evaluate the efficacy of several photo-labile esters of dicamba for post-emergent control of velvetleaf as emulsifiable concentrate formulations described in Example 28.

For the next data set, the system named is Palmer amaranth. The data set is described as follows: Extended pre-emergent control of Palmer amaranth. Format: in vivo. The following applies: emulsifiable concentrate, 21 and 44 days after treatment.

Turning to `COc1c(Cl)ccc(Cl)c1C(=O)OCc1ccccc1[N+](=O)[O-]` [Ester 1a, 2-Nitrobenzyl Ester of Dicamba], in data set [1], the “average dicamba level from the five air samplers” value is given as 1.2 ng/m^3.

Turning to `COc1c(Cl)ccc(Cl)c1C(=O)OCCc1ccccc1[N+](=O)[O-]` [Ester 2, 2-Nitrophenethyl Ester of Dicamba], the “Dark Control % dicamba” value in data set [2] (no illumination) is listed as 0%. Also, the “Conversion to dicamba, 1 day” value in data set [2] (simulated sunlight, 1 day) was 33%. In addition, the “Conversion to dicamba, 2 days” value in data set [2] (simulated sunlight, 2 days) is recorded as 56%. In data set [2] (simulated sunlight, 3 days), the “Conversion to dicamba, 3 days” value is given as 75%. In addition, the “Conversion to dicamba, 5 days” value in data set [2] (simulated sunlight, 5 days) is 93%. Besides, in data set [2] (simulated sunlight, 7 days), the “Conversion to dicamba, 7 days” value is 104%. In data set [2] (simulated sunlight, 11 days), the “Conversion to dicamba, 11 days” value is 107%. For the same molecule, the “Conversion to dicamba, 13 days” value in data set [2] (simulated sunlight, 13 days) was 108%. In addition, the “Conversion to dicamba, 15 days” value in data set [2] (simulated sunlight, 15 days) is 96%. Also, the “Conversion to dicamba, 19 days” value in data set [2] (simulated sunlight, 19 days) is 106%.

Consider `COc1c(Cl)ccc(Cl)c1C(=O)Oc1cnc2ccccc2n1` [Ester 13a, 2-quinoxalinol ester of dicamba], for which the “% Control of velvetleaf, 140 g/ha” value in the data set on velvetleaf (140 g/ha) came to 44%. Besides, the “% Control of velvetleaf, 280 g/ha” value with velvetleaf (280 g/ha) was 69%. In addition, the “% Control of velvetleaf, 420 g/ha” value in the data set with velvetleaf (420 g/ha) was 70%. Moreover, the “% Control of velvetleaf, 560 g/ha” value with velvetleaf (560 g/ha) came out at 83%. The “extended pre-emergent control of Palmer amaranth compared with the diglycolamine salt of dicamba, in words” value with Palmer amaranth is reported as “superior extended pre-emergent control”.
